Results taken from US20150011484A1, “PRODRUGS OF D-GAMMA-GLUTAMYL-D-TRYPTOPHAN AND D-GAMMA-GLUTAMYL-L-TRYPTOPHAN” (APOTEX TECHNOLOGIES, INC., priority 2011, published 2015).
Values belong to the compound of their own block, whether it stands above or below them.

Key:
[1] = Pharmacokinetic studies in rats (oral bioavailability); format: in vivo, male Sprague-Dawley rats
Experimental: Groups of five male Sprague-Dawley rats weighing 250 to 300 g were utilized per dosing group. One day prior to dosing, venous and arterial catheters (made of 20 cm long polyurethane coiled tubing, and filled with 100 units/mL heparinized saline) were implanted into the jugular vein and carotid artery of each rat. Rats were fasted overnight prior to oral dosing and fed approximately 2 hours post-dosing. All dosing and blood sampling was performed on fully conscious rats. Tested compounds were administered either by oral gavage as solutions in water, or by intravenous injection (Apo805K1 only) as solution in 0.9% sodium chloride, final pH 7.0, at doses equivalent to 5 mg/kg (per Apo805 content). Blood (0.3 mL) was sampled from each animal from the carotid artery for up to 30 hours post-dosing, each sampling followed by an equivalent naive-blood replacement. The blood sample was immediately centrifuged (4300×g for 5 minutes at 4° C.), and frozen at −80° C. until LC/MS/MS analysis.
Metanol (200 μL) was added to plasma samples (50 μL) to precipitate plasma proteins. After brief vortexing and centrifugation, the supernatant (200 uL) was removed and dried at 40° C. under a stream if nitrogen. The sample was reconstituted in water (300 μL) and 25 μL was injected for analysis.
A Sciex API 365 LC/MS/MS spectrophotometer equipped with Ionics EP10+ and HSID, was used. A chiral column (Supelco-Astec CHIROBIOTIC™ TAG), 100×2.1 mm, 5 μm was used at ambient temperature. The mobile phase consisted of 0.1% formic acid in water (A) and 0.1% formic acid in acetonitrile (B) in a ratio of 88:12(A:B; v/v) and the flow rate was 0.6 mL/min. Positive ion electrospray ionization (ESI+) in MRM mode was used for analysis. Samples were analysed for the concentration of Apo805.
Absolute oral bioavailability of pro-drugs Apo848, a compound of Formula IA wherein G=T=isoamyl) was compared to that of Apo805K1 (potassium salt of H-D-Glu(D-Trp-OH)—OH) in male Sprague-Dawley rats. Adult animals, five per group, were dosed orally with 5 mg/kg Apo805K1, Apo848, or Apo838 and intravenously with 5 mg/kg Apo805K1.
Non-compartmental analysis was performed using WinNonlin 5.2 software, on individual animal data. Bioavailability was calculated as a ratio of AUCINF—D after oral dosing of test compound to AUCINF—D after IV dosing of Apo805K1.

[2] = Caco-2 cell permeability evaluation; format: in vitro ADME; conditions: human; caco-2, 50 μM, HBSS pH 7.4, 37° C.; read-out: apparent permeability (Papp)
Experimental: Human intestinal absorbtion potential of a compound of Formula I was estimated in caco-2 cells permeability assay.
Caco-2 cells obtained originally from ATCC were seeded onto 0.9-cm^2 PET filter (Becton Dickinson) at a density of 90000 cells/insert. Culture conditions were maintained for 21-28 days in 20% fetal bovine serum containing eagle's minimum essential medium enriched with non-essential amino acids. Integrity of the cell monolayers was evaluated via measurement of Lucifer Yellow paracellular apparent permeability coefficient (Papp).
Prior to the addition of a test compound, growth medium was removed and monolayer was rinsed twice with Hank's balanced salt solution (HBSS) at 37° C. The filter inserts containing the cell monolayers were transferred to a separate 12-well cell culture plate containing HBSS or solution of the test compound in the bottom chamber. […] For every experiment, the test compound solution was added to the top (apical-to-basolateral transport, A>B) or bottom (basolateral-to-apical transport, B>A) chamber and its appearance in the opposite chamber over time was monitored. […] Samples were analyzed by LC-MS/MS. In case of prodrugs which undergo partial hydrolysis during the experiment, the samples were analyzed for the concentration of the prodrug and all hydrolysis products. […]

[3] = Conversion of prodrug to Apo805 in rat blood; format: in vitro ADME
[4] = Distribution coefficient determination, D7.4 (1-octanol / MOPS buffer pH 7.4); format: physicochemical
Experimental: MOPS buffer (50 mM, pH=7.4) and 1-octanol were used as the aqueous phase and the organic phase, respectively. The MOPS buffer and 1-octanol were mixed, and pre-saturated with each other prior to use.
In a typical experiment, an aqueous solution of Apo848 hydrochloride salt (H-D-Glu(D-Trp-O-isoamyl)-O-isoamy HCl) was prepared by weighing out 2 mg of the compound into a 5-mL volumetric flask, followed by addition of MOPS buffer (50 mM, pH=7.4) to volume. The resulting mixture was sonicated and vortexed to ensure complete dissolution. The resulting solution was analyzed by HPLC (Column: XTerra MS C18, […], 4.6×250 mm; Mobile phase: A=4 mM Tris, 2 mM EDTA, pH 7.4 aqueous, B=acetonitrile; Gradient method: time in minutes—B in %:0-5, 15-55, 25-55, 25.05-5, 30-5; Flow rate: 1 mL/min; Injection volume=2 μL; detector wavelength: 282 nm) to obtain the peak height (Haqu^l).
One mL of this aqueous solution was pipetted out into another 10-mL test-tube and mixed with 1 mL of 1-octanol. The mixture was vortexed for 1 hour, then centrifuged at 4000 rpm for 15 minutes. The two phases were separated. Both the aqueous phase and the organic phase were analyzed by HPLC to obtain the peak heights, Haqu^F and Horg^F. The distribution coefficient, D7.4, was calculated using one or both the following equations: D7.4=(Haqu^l−Haqu^F)/Haqu^F, or D7.4=Horg^F/Haqu^F.

[5] = tested on: human hepatocytes; test: Biotransformation studies in human cryopreserved hepatocytes; format: in vitro ADME; conditions: for Bioconversion to Apo805 in human hepatocytes: in 3 h, 100 μM, cryopreserved human hepatocytes
Experimental: LiverPool® cryopreserved human hepatocytes (pooled from 10 male donors) was obtained from Celsis In Vitro Technologies. The hepatocytes were stored in liquid nitrogen until used. Just before the assay, the hepatocytes were quickly thawed at 37° C. and centrifuged at 100×g for 10 min. The media was removed and cells were re-suspended in PBS at a density of 4×10^6 cells/mL.
The compound of Formula I (100 μM) was incubated with 0.1×10^6 hepatocytes in 50 μL volume. […] The “time 0” sample was generated by adding TCA before the test compound. After brief vortexing and 10-min incubation on ice, samples were centrifuged (16,000×g, 10 min) and the supernatants were analyzed by HPLC with UV detection.
HPLC analysis of pro-drugs in SGF, SIF, plasma and hepatocytes samples: HPLC analysis was done using an Agilent 1100 series HPLC system consisting of a programmable multi-channel pump, auto-injector, vacuum degasser and HP detector controlled by Agilent HPLC218 Chem Station Rev.A.09.03 software for data acquisition and analysis. A gradient method was used for the determination of all pro-drugs and their hydrolysis products including Apo805 on an Agilent Eclipse XDB, C18 column (part #963967-902, 150×4.6 mm, 3.5 μm) with the following chromatographic conditions: • Temperature: Ambient • Mobile phase: A=Aqueous phase: 10 mM Tris-HCl, 2 mM EDTA, pH 7.4 • B=Organic phase: Acetonitrile • Gradient method: Time: 0 min 5% B, 25 min 50% B, 35 min 80% B, 45 min 5% B, 50 min 5% B. • Mobile phase flow rate: 1.0 mL/min • Injection volume: 50 μL • Data acquisition time: 30 min • Detection wavelength: 280 nm; 4 nm bandwidth, ref. 360 nm, 4 nm bandwidth
The chromatograms at λ=280 nm were analyzed. Peak area (mAU*s) was used for quantitation of pro-drugs, intermediates and H-D-Glu(D-Trp-OH)—OH (Apo805).

Absolute oral bioavailability (AUC oral / AUC intravenous Apo805K1; Apo805 measured in plasma) ([1]; rats, oral 5 mg/kg): 12%
Compound: N[C@H](CCC(=O)N[C@H](Cc1c[nH]c2ccccc12)C(=O)[O-])C(=O)[O-].[H+].[K+] [Apo805K1, potassium salt of H-D-Glu(D-Trp-OH)—OH, reference compound]

Log D7.4 ([4]; pH 7.4, 1-octanol/MOPS buffer): −3.22
Compound: N[C@H](CCC(=O)N[C@H](Cc1c[nH]c2ccccc12)C(=O)O)C(=O)O [Apo805, D-gamma-glutamyl-D-tryptophan]

Log D7.4 ([4]; pH 7.4, 1-octanol/MOPS buffer): −0.89
Compound: COC(=O)[C@@H](Cc1c[nH]c2ccccc12)NC(=O)CC[C@@H](N)C(=O)O [H-D-Glu(D-Trp-OMe)-OH, reference compound]

Bioconversion to Apo805 in human hepatocytes [5]: 30% in 3 h | Log D7.4 ([4]; pH 7.4, 1-octanol/MOPS buffer): 0.57
Compound: COC(=O)[C@H](N)CCC(=O)N[C@H](Cc1c[nH]c2ccccc12)C(=O)OC [Apo840, H-D-Glu(D-Trp-O—Me)—O—Me, reference compound]

The remaining lines, values behind:

Compound: CC(C)CCOC(=O)[C@H](N)CCC(=O)N[C@H](Cc1c[nH]c2ccccc12)C(=O)OCCC(C)C.Cl [Apo848, 3-methylbutyl (2R)-2-amino-5-{[(2R)-3-(1H-indol-3-yl)-1-(3-methylbutoxy)-1-oxopropan-2-yl]amino}-5-oxopentanoate hydrochloride]
Papp at 120 min, 50 μM [2]: 2.87 ×10⁻⁶ cm/s | conversion to Apo805 in rat blood [3]: instantaneously converted | improvement of the log D value of H-D-Glu(D-Trp-OH)—OH ([4]; diisoamyl ester versus parent drug): more than 10^5 fold | Log D7.4 ([4]; pH 7.4, 1-octanol/MOPS buffer): 2.1 | distribution coefficient D7.4 ([4]; pH 7.4, 1-octanol/MOPS buffer): 127 | logD ([4]; pH 7.4, 1-octanol/MOPS buffer, read-out: Log D7.4): 2.1 | Absolute oral bioavailability (AUC oral / AUC intravenous Apo805K1; Apo805 measured in plasma) ([1]; male, Sprague-Dawley, rat, in vivo, 5 mg/kg): 48% | oral bioavailability compared with Apo805 ([1]; rat, in vivo, po): enhanced | oral exposure compared with H-D-Glu(D-Trp-OH)—OH ([1]; rat, in vivo, po): improved

Compound: COC(=O)[C@@H](Cc1c[nH]c2ccccc12)NC(=O)CC[C@@H](N)C(=O)OCc1ccccc1 [Apo804, H-D-Glu(D-Trp-OMe)-O—CH2Ph]
Bioconversion to Apo805 in human hepatocytes [5]: 30% | Apo805 formed in human cryopreserved hepatocyte ([5]; over a period of 4 hours): 31% | log D7.4 compared with Apo805 ([4]; more lipophilic than Apo805): higher
